The compounds below were run against Voltage-dependent L-type calcium channel subunit alpha-1C (Sus scrofa) (assay: Inhibition of [3H]nitrendipine binding to L-type calcium channel dihydropyridine site of porcine cardiac sarcolemma membrane vesicles).

| Compound | Ki |
| --- | --- |
| CCOC(=O)[C@@H]1[C@H]2/C(=C(\O)OCC)C(C)=N[C@]1(C)Sc1ccccc12 | 500 nM |
| CCOC(=O)[C@H]1[C@H]2/C(=C(\O)OCC)C(C)=N[C@]1(C)Sc1cc([N+](=O)[O-])ccc12 | 5000 nM |
| CCOC(=O)[C@H]1[C@H]2/C(=C(\O)OCC)C(C)=N[C@]1(C)Sc1ccc([N+](=O)[O-])cc12 | 650 nM |
| CCOC(=O)C1=C(C)N=C(C)C(=C(O)OCC)C1c1cc([N+](=O)[O-])ccc1SC (centres undefined) | 80 nM |
| CCOC(=O)[C@@H]1[C@H]2/C(=C(\O)OCC)C(C)=N[C@]1(C)Sc1c2cccc1[N+](=O)[O-] | 6000 nM |
| CCOC(=O)[C@@H]1[C@H]2/C(=C(\O)OCC)C(C)=N[C@]1(C)Sc1cc([N+](=O)[O-])ccc12 | 3000 nM |
| CCOC(=O)[C@H]1[C@H]2/C(=C(\O)OCC)C(C)=N[C@]1(C)Sc1ccccc12 | 5000 nM |
| CCOC(=O)[C@H]1[C@H]2/C(=C(\O)OCC)C(C)=N[C@]1(C)Sc1c2cccc1[N+](=O)[O-] | 250 nM |
| CCOC(=O)[C@@H]1[C@H]2/C(=C(\O)OCC)C(C)=N[C@]1(C)Sc1ccc([N+](=O)[O-])cc12 | 30 nM |

From BindingDB's records for doi:10.1021/jm00387a019 (1987)
